Reference: article PMC6173406, “Design and evaluation of selective butyrylcholinesterase inhibitors based on Cinchona alkaloid scaffold” (PLoS ONE, 2018)
Where two headings read alike, the source gives them in different places.

Assays:
human AChE = biological target: T1, human AChE (Homo sapiens, UniProt P22303); assay: Reversible inhibition of human AChE, Ellman method with ATCh, Hunter-Downs analysis; assay type: biochemical; parameters: key to AChE type of inhibition: c, n and m stands for competitive, noncompetitive and mixed type of inhibition; c, n and m stands for competitive, noncompetitive and mixed type of inhibition; c, n and m stands for competitive, noncompetitive and mixed type of inhibition; details: for Ki: enzyme-inhibitor dissociation constant ± standard error, ATCh 0.050–0.50 mM, pH 7.4, 25 °C; for AChE Ks: enzyme-substrate (ATCh) dissociation constant derived from the inhibition kinetics with the compound; for AChE type of inhibition: symbol in brackets after Ki
T1 construct: gift of Dr. F. Nachon (Département de Toxicologie, Armed Forces Biomedical Research Institute, France)
T1 sequence (P22303 32-614): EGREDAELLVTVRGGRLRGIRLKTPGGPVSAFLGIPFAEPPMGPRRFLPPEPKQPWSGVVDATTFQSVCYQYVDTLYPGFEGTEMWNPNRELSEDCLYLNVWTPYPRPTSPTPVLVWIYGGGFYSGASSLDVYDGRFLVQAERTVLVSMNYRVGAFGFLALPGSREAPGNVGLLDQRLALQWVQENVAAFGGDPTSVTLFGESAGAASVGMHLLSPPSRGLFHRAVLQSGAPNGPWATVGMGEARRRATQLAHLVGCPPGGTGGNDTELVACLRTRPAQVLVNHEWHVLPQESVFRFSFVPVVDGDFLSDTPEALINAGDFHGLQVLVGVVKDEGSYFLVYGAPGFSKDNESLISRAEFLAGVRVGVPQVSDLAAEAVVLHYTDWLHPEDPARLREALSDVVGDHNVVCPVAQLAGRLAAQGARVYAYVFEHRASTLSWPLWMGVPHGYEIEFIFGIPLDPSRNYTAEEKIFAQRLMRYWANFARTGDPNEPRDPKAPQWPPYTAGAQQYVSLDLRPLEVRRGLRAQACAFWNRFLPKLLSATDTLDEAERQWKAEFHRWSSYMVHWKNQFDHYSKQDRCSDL
Method: (§1) Purified human BChE and recombinant human AChE were kindly provided by Dr. F. Nachon (Département de Toxicologie, Armed Forces Biomedical Research Institute, France). The concentration of enzymes (BChE: 5.6 μM; AChE: 0.20 μM) was determined as described previously. The concentrated stocks of enzymes were diluted in a phosphate sodium buffer 0.1 M (pH 7.4) containing 0.1% BSA.
(§2) Enzyme activities were measured spectrophotometrically by Ellman method at 412 nm using 0.30 mM DTNB as thiol reagent and ATCh (0.050–0.50 mM) as substrate in 0.1 M phosphate buffer, pH 7.4 [29, 30]. For the inhibition, the reaction mixture also contained cinchonidines or cinchonines (final concentrations 0.020–200 μM, depending on compound). In the case of compounds CD-(pCl) and CN-(pCl), the final content of DMSO was the same in enzyme activity measurement and in inhibition measurements, up to 0.32%. No side interactions of tested compounds with ATCh or DTNB were detected. Measurements were done at 25 °C on a Tecan Infinite M200Pro plate reader (Austria).
(§3) The reversible inhibition of BChE and AChE by cinchonines and cinchonidines was measured by determining the decrease of enzyme activity towards ATCh (0.050–0.50 mM) in their presence. The activities of the enzymes were measured at different substrate concentrations ([S]) in the absence (v0) and presence (vi) of given cinchonines and cinchonidines concentration ([I]) selected to inhibit the enzymes for 20–80%. At least three concentrations of inhibitors for each substrate concentration were used in at least two experiments. The apparent dissociation inhibition constant (Ki,app) was calculated using the Hunter-Downs equation and the linear regression analysis: Ki,app=vi/v0−vi⋅[I]=K(I)+K(I)/K(S)⋅[S] where y-intercept determines the enzyme-inhibitor dissociation constants (K(I)), while x-intercept determines the enzyme-substrate dissociation constant, K(S). The equation was used with the assumption that the substrate, due to relatively low substrate concentrations used in experiments, binds only to the catalytic site, while inhibitor can bind to both sites catalytic and peripheral site. In other words, if the inhibitor competes with substrate for binding to the catalytic site of the enzyme, Ki,app proportionally depend on the substrate concentration. […] The curve means that the inhibitor binds not only to the catalytic or peripheral site but also to intermediates of Michaelis type of the enzyme-substrate complex.

human BChE [1] = biological target: T2, human BChE (Homo sapiens, UniProt P06276); assay: Reversible inhibition of human BChE, Ellman method with ATCh, Hunter-Downs analysis; assay type: biochemical; parameters: key to BChE type of inhibition: c, n and m stands for competitive, noncompetitive and mixed type of inhibition; c, n and m stands for competitive, noncompetitive and mixed type of inhibition; c, n and m stands for competitive, noncompetitive and mixed type of inhibition; details: for BChE Ks: enzyme-substrate (ATCh) dissociation constant derived from the inhibition kinetics with the compound; for Ki(AChE)/ Ki (BChE): inhibition selectivity, ratio of Ki constants for AChE and BChE; for BChE inhibition potency compared to CD-Met: fold more potent than CD-Met
T2 construct: gift of Dr. F. Nachon (Département de Toxicologie, Armed Forces Biomedical Research Institute, France)
T2 sequence (P06276 29-602): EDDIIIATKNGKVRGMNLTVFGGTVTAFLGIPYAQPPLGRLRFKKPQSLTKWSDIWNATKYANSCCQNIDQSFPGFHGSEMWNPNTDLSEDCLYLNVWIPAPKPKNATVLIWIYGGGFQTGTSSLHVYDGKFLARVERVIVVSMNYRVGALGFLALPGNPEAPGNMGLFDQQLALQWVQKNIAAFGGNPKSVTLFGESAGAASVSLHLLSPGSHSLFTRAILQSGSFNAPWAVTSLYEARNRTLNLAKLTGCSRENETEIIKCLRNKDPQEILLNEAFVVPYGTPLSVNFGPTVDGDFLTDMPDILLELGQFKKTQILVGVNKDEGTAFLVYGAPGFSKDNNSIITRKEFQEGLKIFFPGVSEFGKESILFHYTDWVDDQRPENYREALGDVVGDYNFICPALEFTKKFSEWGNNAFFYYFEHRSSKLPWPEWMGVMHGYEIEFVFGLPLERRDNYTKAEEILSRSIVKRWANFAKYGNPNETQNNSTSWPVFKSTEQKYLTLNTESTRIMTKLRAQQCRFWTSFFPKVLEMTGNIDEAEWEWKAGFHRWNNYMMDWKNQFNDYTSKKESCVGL
Method: as §1, §2, §3

human BChE [2] = biological target: T2, human BChE; details: cited from earlier work
[3] = enzyme-inhibitor dissociation constant ± standard error, ATCh 0.050–0.50 mM, pH 7.4, 25 °C
[4] = ratio of Ki of cinchonine to Ki of the pseudo-enantiomeric cinchonidine

| SMILES | Ki (human AChE) [µM] | AChE Ks (human AChE) [mM] | AChE type of inhibition (human AChE) | Ki (human BChE [1]; [3]) [µM] | BChE Ks (human BChE [1]) [mM] | BChE affinity lower compared to CD-(pBr) (human BChE [1]; fold lower affinity than CD-(pBr)) | BChE type of inhibition (human BChE [1]; symbol in brackets after Ki) | Ki (human BChE [1]) [µM] | Ki(AChE)/ Ki (BChE) (human BChE [1]) | BChE inhibition potency compared to CD-Met (human BChE [1]) | BChE binding preference para- over meta-positioned substituent (human BChE [1]; para compound compared to meta compound) [times] | BChE stereoselectivity Ki(CN/CD) (human BChE [1]; [4]) | BChE Ks (human BChE [2]) [mM] | Ki (human BChE [2]; read-out: BChE Ki) [µM] | AChE affinity lower than for the highest-affinity compounds (human AChE; compared to CD-(mNO2) and CD-(mCH3)) [times] | BChE type of inhibition (human BChE [1]; substrate concentrations higher than 0.35 mM, deviation from linearity in Hunter-Downs plot) | AChE stereoselectivity Ki(CN/CD) (human AChE; [4]) |
| --- | --- | --- | --- | --- | --- | --- | --- | --- | --- | --- | --- | --- | --- | --- | --- | --- | --- |
| C=CC1C[N+]2(C)CCC1CC2C(O)c1ccnc2ccccc12 (centres unmarked) [CD-Met] | 67 ± 6 | 0.70 ± 0.17 | c | 26 ± 4 | 0.70 ± 0.22 | approximately 730 times | c |  |  |  |  |  |  |  |  |  |  |
| C=CC1C[N+]2(Cc3ccccc3)CCC1CC2C(O)c1ccnc2ccccc12 (centres unmarked) [CD-Bzl] | 15 ± 2 | 0.78 ± 0.3 | m | 0.075 ± 0.007 | 0.27 ± 0.03 |  | c | ≤ 0.1 | 200 |  |  |  |  |  |  |  |  |
| C=CC1C[N+]2(Cc3ccc(Br)cc3)CCC1CC2C(O)c1ccnc2ccccc12 (centres unmarked) [CD-(pBr), N-para-bromobenzyl cinchonidinium bromide] | 19 ± 1 | 2.2 ± 0.524 | m | 0.038 ± 0.005 | 0.34 ± 0.07 |  | c | ≤ 0.1 | 510 | 700 times | 16 | 92 |  |  |  |  |  |
| C=CC1C[N+]2(Cc3ccc(Cl)cc3)CCC1CC2C(O)c1ccnc2ccccc12 (centres unmarked) [CD-(pCl)] | 37 ± 4 |  | n | 0.1 ± 0.01 | 0.42 ± 0.05 |  | c | ≤ 0.1 | 350 |  |  |  |  |  |  |  |  |
| CCN(CC)C(C)CN1c2ccccc2Sc2ccccc21 (centres unmarked) [Ethopropazine] |  |  |  |  |  |  |  |  |  |  |  |  | 0.69 ± 0.14 | 0.16 ± 0.03 |  |  |  |
| C=CC1C[N+]2(Cc3ccccc3)CCC1CC2C(O)c1ccnc2ccccc12 (centres unmarked) [CN-Bzl] | 121 ± 12 | 1.1 ± 0.4 | m | 2.9 ± 0.3 | 0.29 ± 0.04 |  | c |  | 42 |  |  |  |  |  | ~50 |  |  |
| C=CC1C[N+]2(Cc3ccc([N+](=O)[O-])cc3)CCC1CC2C(O)c1ccnc2ccccc12 (centres unmarked) [CN-(pNO2)] | 51 ± 2 |  | n | 7.6 ± 0.7 | 0.32 ± 0.04 |  | c |  | 6.6 |  |  |  |  |  |  |  |  |
| C=CC1C[N+]2(Cc3ccc(C)cc3)CCC1CC2C(O)c1ccnc2ccccc12 (centres unmarked) [CD-(pCH3)] | 16 ± 1 | 1.3 ± 0.2 | c | 0.17 ± 0.02 | 0.38 ± 0.06 |  | m |  | 99 |  |  |  |  |  |  | mixed inhibition |  |
| C=CC1C[N+]2(Cc3ccc([N+](=O)[O-])cc3)CCC1CC2C(O)c1ccnc2ccccc12 (centres unmarked) [CD-(pNO2)] | 36 ± 2 |  | n | 6 ± 0.5 | 0.38 ± 0.05 |  | c |  | 5.9 | only five times higher |  |  |  |  |  |  |  |
| C=C[C@H]1C[N@@]2CC[C@H]1C[C@@H]2[C@@H](O)c1ccnc2ccccc12 [CN, cinchonine, reference compound] | 34 ± 1 | 0.25 ± 0.01 | c | 4.9 ± 1.4 | 0.50 ± 0.27 |  | c |  |  |  |  |  |  |  |  |  |  |
| C=CC1C[N+]2(Cc3cccc(Cl)c3)CCC1CC2C(O)c1ccnc2ccccc12 (centres unmarked) [CD-(mCl), N-(3-chlorobenzyl) cinchonidinium chloride] | 23 ± 1 | 0.74 ± 0.08 | c | 0.24 ± 0.01 | 0.53 ± 0.05 |  | m |  | 95 |  |  |  |  |  |  |  |  |
| C=CC1C[N+]2(Cc3cccc(C)c3)CCC1CC2C(O)c1ccnc2ccccc12 (centres unmarked) [CD-(mCH3), N-(3-methylbenzyl) cinchonidinium bromide] | 3 ± 0.3 | 0.63 ± 0.14 | m | 0.077 ± 0.006 | 0.52 ± 0.08 |  | m | ≤ 0.1 | 39 |  |  |  |  |  |  |  | 16 |
